This is an account of results in ChEMBL document CHEMBL5465560, “Selectivity Literature for EUbOPEN Chemogenomic Library” (2024).

Test [1] addresses T1, Tyrosine-protein kinase TXK (Homo sapiens) (UniProt P42681).
T1 sequence (whole entry): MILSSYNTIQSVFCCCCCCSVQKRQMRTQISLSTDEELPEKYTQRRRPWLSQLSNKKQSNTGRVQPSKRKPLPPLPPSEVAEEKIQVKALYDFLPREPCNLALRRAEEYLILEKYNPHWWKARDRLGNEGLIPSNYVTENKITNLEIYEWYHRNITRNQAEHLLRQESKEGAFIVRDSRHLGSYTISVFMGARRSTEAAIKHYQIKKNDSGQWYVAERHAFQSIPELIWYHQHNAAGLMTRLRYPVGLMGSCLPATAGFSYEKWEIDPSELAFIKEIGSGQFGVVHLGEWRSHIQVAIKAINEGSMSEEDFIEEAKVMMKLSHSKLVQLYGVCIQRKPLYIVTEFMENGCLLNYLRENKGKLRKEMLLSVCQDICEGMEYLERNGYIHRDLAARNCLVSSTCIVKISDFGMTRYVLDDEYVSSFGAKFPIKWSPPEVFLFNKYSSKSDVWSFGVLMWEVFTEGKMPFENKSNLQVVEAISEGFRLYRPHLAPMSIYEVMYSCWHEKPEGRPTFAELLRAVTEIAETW
Nature of the test: Selectivity interaction (KinomeScan (DiscoverX)) EUB0000607a TXK. The conditions noted are these: at 10 µM.

For test [2], the target named is T2, Serine/threonine-protein kinase 3 (Homo sapiens) (UniProt Q13188).
T2 sequence (whole entry): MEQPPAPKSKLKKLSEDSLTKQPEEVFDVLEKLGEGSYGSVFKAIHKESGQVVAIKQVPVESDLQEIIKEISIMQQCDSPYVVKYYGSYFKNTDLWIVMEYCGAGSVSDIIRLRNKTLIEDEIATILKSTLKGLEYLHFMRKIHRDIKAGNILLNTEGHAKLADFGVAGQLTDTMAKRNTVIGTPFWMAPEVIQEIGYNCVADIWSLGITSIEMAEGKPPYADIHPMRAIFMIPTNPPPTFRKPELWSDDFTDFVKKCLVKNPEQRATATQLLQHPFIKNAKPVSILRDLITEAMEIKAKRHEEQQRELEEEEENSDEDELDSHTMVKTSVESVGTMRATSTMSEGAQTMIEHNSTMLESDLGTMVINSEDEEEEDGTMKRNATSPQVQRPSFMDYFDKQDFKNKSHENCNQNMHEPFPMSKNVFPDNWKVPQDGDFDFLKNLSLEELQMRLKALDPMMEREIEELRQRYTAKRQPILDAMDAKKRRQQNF
Nature of the test: Selectivity interaction (KinomeScan (DiscoverX)) EUB0001619a STK3. The conditions noted are these: at 1 µM.

In test [3] the target is Phosphatidylinositol 4,5-bisphosphate 3-kinase catalytic subunit beta isoform (Homo sapiens) (UniProt P42338). Nature of the test: Selectivity interaction (Kinase panel (literature)) EUB0001199aCl PIK3CB. The conditions noted are these: at 1 µM.
For test [4], the target named is T3, Protein kinase C iota type (Homo sapiens) (UniProt P41743).
T3 sequence (whole entry): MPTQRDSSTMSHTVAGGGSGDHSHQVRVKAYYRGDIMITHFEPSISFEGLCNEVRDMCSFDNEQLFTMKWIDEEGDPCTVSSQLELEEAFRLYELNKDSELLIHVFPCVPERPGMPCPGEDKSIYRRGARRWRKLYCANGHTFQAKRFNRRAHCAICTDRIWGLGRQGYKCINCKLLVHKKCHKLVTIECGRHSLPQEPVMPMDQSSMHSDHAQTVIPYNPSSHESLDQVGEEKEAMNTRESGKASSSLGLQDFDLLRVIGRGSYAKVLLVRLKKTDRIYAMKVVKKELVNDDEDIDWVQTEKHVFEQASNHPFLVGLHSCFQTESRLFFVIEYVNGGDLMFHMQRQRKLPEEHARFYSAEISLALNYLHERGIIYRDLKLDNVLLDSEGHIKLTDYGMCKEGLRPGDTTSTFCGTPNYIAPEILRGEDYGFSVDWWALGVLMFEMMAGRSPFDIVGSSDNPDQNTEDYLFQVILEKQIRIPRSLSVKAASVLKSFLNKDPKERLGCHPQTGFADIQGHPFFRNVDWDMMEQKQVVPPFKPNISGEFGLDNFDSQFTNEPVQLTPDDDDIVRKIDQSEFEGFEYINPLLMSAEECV
Nature of the test: Selectivity interaction (ActivX KiNativ screen (kinase selectivity in THP-1 cell lysates)) EUB0000639a PRKCI. The conditions noted are these: lysate, at 0.04 µM. It is filed as subcellular.

Test [5] has as its target Dual specificity mitogen-activated protein kinase kinase 1 (Homo sapiens, UniProt Q02750). Nature of the test: Selectivity interaction (ActivX KiNativ screen (kinase selectivity in THP-1 cell lysates)) EUB0000639a MAP2K1. It is filed as subcellular. The conditions noted are these: lysate, at 5 µM.
For test [6], the target named is Proto-oncogene tyrosine-protein kinase Src (Homo sapiens, UniProt P12931). The conditions noted are these: at 10 µM.
Test [7] concerns the target Serine/threonine-protein kinase 24 (Homo sapiens) (UniProt Q9Y6E0). Nature of the test: Selectivity interaction (KinomeScan (DiscoverX)) EUB0000092b STK24. The conditions noted are these: at 10 µM.
Test [8] deals with T4, Homeodomain-interacting protein kinase 4 (Homo sapiens) (UniProt Q8NE63).
T4 sequence (whole entry): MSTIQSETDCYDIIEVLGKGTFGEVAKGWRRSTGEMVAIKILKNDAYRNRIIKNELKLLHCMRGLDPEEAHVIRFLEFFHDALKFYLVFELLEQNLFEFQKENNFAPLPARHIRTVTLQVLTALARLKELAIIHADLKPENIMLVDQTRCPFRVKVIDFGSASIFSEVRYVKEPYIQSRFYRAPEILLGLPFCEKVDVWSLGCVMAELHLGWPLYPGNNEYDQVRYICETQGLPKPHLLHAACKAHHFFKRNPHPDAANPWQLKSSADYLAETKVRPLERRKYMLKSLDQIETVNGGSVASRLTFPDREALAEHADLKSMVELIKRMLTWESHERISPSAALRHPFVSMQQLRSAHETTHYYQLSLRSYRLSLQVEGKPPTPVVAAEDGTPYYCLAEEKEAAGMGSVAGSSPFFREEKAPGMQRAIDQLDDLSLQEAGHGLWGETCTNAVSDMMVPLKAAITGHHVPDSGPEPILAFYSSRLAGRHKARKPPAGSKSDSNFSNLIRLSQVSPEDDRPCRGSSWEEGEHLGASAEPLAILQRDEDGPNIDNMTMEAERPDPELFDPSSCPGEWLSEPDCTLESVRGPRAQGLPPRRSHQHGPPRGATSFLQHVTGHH
The experiment in a line: Selectivity interaction (KinomeScan (DiscoverX)) EUB0000595a HIPK4. The conditions noted are these: at 10 µM.

Sequence of Dual specificity mitogen-activated protein kinase kinase 1 (Q02750 whole entry): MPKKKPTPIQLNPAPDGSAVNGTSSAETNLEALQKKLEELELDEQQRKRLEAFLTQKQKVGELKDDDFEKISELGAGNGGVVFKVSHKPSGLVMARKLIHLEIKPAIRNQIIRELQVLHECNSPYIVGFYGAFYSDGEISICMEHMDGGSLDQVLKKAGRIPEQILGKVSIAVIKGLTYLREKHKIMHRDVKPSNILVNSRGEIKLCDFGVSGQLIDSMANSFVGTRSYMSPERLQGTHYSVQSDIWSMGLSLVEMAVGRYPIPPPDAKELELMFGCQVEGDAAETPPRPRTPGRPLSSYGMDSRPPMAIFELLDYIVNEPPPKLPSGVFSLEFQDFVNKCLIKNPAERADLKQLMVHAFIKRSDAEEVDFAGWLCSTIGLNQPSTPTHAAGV
Sequence of Phosphatidylinositol 4,5-bisphosphate 3-kinase catalytic subunit beta isoform (Homo sapiens) (P42338 whole entry, looked up, canonical isoform): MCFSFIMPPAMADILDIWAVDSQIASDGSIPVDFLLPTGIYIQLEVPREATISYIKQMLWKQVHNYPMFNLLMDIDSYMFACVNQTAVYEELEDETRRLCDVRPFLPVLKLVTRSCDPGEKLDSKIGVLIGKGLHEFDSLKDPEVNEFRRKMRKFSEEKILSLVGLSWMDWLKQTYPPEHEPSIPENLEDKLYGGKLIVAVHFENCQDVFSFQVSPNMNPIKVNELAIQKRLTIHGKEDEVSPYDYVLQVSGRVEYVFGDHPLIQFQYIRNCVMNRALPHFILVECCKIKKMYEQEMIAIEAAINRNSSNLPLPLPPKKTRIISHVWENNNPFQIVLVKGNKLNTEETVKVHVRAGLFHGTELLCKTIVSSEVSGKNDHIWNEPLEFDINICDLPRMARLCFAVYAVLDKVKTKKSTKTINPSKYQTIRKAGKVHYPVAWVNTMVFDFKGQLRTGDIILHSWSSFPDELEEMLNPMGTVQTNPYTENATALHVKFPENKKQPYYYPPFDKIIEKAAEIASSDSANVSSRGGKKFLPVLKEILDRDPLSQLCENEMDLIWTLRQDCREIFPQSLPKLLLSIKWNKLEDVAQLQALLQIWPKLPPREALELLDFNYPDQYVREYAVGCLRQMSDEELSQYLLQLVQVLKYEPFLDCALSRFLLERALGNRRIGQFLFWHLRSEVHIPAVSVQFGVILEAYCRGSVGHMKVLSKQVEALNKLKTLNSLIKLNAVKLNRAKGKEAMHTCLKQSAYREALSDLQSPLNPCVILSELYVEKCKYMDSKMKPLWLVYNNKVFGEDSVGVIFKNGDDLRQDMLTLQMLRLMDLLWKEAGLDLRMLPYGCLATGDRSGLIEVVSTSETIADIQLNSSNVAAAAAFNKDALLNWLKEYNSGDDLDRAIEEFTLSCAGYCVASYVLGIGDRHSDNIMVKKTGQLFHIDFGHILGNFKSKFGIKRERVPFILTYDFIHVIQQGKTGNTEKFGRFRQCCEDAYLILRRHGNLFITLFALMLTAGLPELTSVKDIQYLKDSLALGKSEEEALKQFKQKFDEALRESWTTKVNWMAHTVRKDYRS
Sequence of Serine/threonine-protein kinase 24 (Homo sapiens) (Q9Y6E0 whole entry, looked up): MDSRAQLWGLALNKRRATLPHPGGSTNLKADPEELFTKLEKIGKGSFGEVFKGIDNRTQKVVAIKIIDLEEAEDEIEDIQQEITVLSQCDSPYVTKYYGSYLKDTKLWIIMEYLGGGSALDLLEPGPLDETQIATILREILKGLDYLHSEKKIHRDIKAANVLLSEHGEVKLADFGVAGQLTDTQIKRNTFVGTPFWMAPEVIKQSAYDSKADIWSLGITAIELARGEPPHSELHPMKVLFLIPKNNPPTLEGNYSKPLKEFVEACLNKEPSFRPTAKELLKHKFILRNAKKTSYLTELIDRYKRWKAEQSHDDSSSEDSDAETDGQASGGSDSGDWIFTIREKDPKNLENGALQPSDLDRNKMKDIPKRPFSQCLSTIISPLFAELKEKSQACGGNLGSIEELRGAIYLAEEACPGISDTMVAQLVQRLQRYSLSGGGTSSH
Sequence of Proto-oncogene tyrosine-protein kinase Src (P12931 2-536 limits assumed): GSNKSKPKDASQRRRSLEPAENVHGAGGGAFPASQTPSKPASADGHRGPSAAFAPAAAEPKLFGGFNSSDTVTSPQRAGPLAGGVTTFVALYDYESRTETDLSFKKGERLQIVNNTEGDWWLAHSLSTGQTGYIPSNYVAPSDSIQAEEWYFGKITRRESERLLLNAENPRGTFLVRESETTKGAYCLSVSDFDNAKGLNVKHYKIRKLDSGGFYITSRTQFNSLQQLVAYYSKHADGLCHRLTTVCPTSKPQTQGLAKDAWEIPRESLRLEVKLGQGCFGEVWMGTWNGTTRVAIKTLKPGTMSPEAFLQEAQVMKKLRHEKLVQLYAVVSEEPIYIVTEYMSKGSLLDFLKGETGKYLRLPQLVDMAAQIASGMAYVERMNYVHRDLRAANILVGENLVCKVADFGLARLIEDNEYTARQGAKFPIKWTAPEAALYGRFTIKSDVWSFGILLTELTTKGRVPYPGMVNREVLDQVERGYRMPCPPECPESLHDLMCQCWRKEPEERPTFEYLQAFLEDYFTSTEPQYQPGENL

In the case of `CNC(=O)Nc1ccc(-c2nc(N3CC4CCC(C3)O4)c3cnn(C4CCC5(CC4)OCCO5)c3n2)cc1`, in test [1], the % of control came to 94%.
`N#Cc1cccc(-c2c[nH]c3ncnc(N4CCOCC4)c23)c1` came in with a % of control in test [2] of 1.8%.
Regarding `CN1Cc2nccc(-c3cn(C)nc3-c3ccc(F)cc3)c2C1=O`, the % of inhibition in test [3] turned out to be 1%.
As to `CC[C@@H]1[C@H](F)C(=O)N[C@@H]1COc1nccc2cc(C(N)=O)c(OC)cc12` [ZIMLOVISERTIB], the results for the % of inhibition in test [4] and in test [5] were -0.9% and 20.8%, respectively.
`CCN(CC)CCCCNc1ncc2cc(-c3cc(OC)cc(OC)c3)c(NC(=O)NC(C)(C)C)nc2n1` returned a % of control in test [6] of 100%.
In the case of `CCC(=O)N1CCN(c2ccc(-n3c(=O)ccc4cnc5ccc(-c6cnc7ccccc7c6)cc5c43)cc2C(F)(F)F)CC1`, in test [7], the % of control amounted to 100%.
In turn, `COCC(=O)NC/C=C/c1ccc2ncnc(Nc3ccc(Oc4ccc(C)nc4)c(C)c3)c2c1` [CP-724714] registered a % of control in test [8] of 95%.
